These results are taken from patent US11274082B2, “Tead inhibitors and uses thereof” (Ikena Oncology, Inc., priority 2019, dated 2022).

Test [1] has as its system TEAD. Description: TEAD reporter assay (Hippo Pathway TEAD Reporter - MCF7 cell line, luciferase). To be noted: Homo sapiens. It is filed as cell-based. The source says: TEAD inhibition can be assayed using Hippo Pathway TEAD Reporter—MCF7 Cell Line (BPS Bioscience, Catalog #: 60618).
The TEAD Reporter—MCF7 cell line contains the firefly luciferase gene under the control of TEAD responsive elements stably integrated into the human breast cancer cell line, MCF7. Inside the cells, basal unphosphorylated YAP/TAZ remains in the nucleus and induces the constitutive expression of luciferase reporter. The cell line is validated for the inhibition of the expression of luciferase reporter by the activators of the Hippo pathway.
• 1) Harvest TEAD Reporter—MCF7 cells from culture in growth medium and seed cells at a density of 35,000 cells per well into white clear-bottom 96-well microplate in 45 μl of assay medium. • 2) Incubate cells at 37° C. in a CO2 incubator for overnight. • 3) Dilute the activators (H2O2 or okadaic acid) stock in assay medium. Add 5 μl of diluted activators to the wells. The final concentration of DMSO in assay medium is 0.1%. • 4) Add 5 μl of assay medium with same concentration of DMSO without activator to control wells. • 5) Add 50 μl of assay medium with DMSO to cell-free control wells (for determining background luminescence). • 6) Set up each treatment in at least triplicate. • 7) Incubate cells at 37° C. in a CO2 incubator for 5-6 hours. • 8) Perform luciferase assay using the ONE-Step™ Luciferase Assay System following the protocol provided: Add 100 μl of ONE-Step™ Luciferase reagent per well and rock at room temperature for ˜15 minutes. Measure luminescence using a luminometer. • 9) Data Analysis: Obtain the background-subtracted luminescence by subtracting the average background luminescence (cell-free control wells) from the luminescence reading of all wells.
(§1) Certain compounds were tested in TEAD reporter assay, and in H226 and H28. A: EC50<0.1 uM; B: 0.1 uM≤EC50≤0.5 uM; C: EC50>0.5 uM.
(In a reporter assay the amount or activity of a reporter protein is the signal.)

The subject of test [2] is H226. As to the kind of experiment: Anti-proliferation assay in H226 cells. The class given is cell-based. To be noted: Homo sapiens. Here is the method:
as §1
Individual cell lines were grown in medium according to supplier instructions and seeded into 96-well plates at a density that ensured logarithmic growth over 72 hours. TEAD inhibitor compounds were administered to cells at a top concentration of 10 μm and subsequently a 10 point 3-fold serial dilution was conducted. After 72 hours, proliferation was quantified using Cell TITERGLO™ (Promega, Inc.) and compared to vehicle control. IC50 and EC50 values were generated using XLFit curve fitting software.

Where [3] appears, read: TEAD Reporter - MCF7 cells, read-out: TEAD Reporter Assay EC50.
[4] abbreviates: NCI-H226, H226 cells, read-out: H226 EC50.

Each structure is given as a SMILES string. Read-outs that look alike come from different tables or passages of the source.

A word on the EC50: it is the concentration giving half of the maximal effect. Consider `CC[C@H](Nc1ccc(S(=O)(=O)NC)cc1-c1cn(C)cn1)c1ccccc1` [I-53, N-Methyl-3-(1-methylimidazol-4-yl)-4-[[(1S)-1-phenylpropyl]amino]benzenesulfonamide], for which the EC50 in test [1] (setting [3]) and in test [2] (setting [4]) was greater than 0.5 µM each time.
Take `CNS(=O)(=O)c1ccc(Nc2ccc(C(F)(F)F)cn2)c(-c2cn(C(C)C)cn2)c1` [I-85, 3-(1-isopropylimidazol-4-yl)-N-methyl-4-[[5-(trifluoromethyl)-2-pyridyl]amino]benzenesulfonamide]: the EC50 in test [1] (setting [3]) and in test [2] (setting [4]) was less than 0.1 µM in each case.
Turning to `CNS(=O)(=O)c1ccc(NCc2ccccc2)c(-c2cn(C(C)C)cn2)c1` [I-50, 4-(Benzylamino)-3-(1-isopropylimidazol-4-yl)-N-methyl-benzenesulfonamide], the EC50 in test [1] (setting [3]) and in test [2] (setting [4]) was 0.1 to 0.5 µM each time.
Take `CNS(=O)(=O)c1ccc(N[C@@H](C)c2cccc(C(F)(F)F)c2)c(-c2cn(C)cn2)c1` [I-83, N-Methyl-3-(1-methylimidazol-4-yl)-4-[[(1S)-1-[3-(trifluoromethyl)phenyl]ethyl]amino]benzenesulfonamide]: the EC50 in test [1] (setting [3]) was 0.1 to 0.5 µM; in test [2] (setting [4]) it was less than 0.1 µM.
The like results for `CNS(=O)(=O)c1ccc(Nc2cc(C(F)(F)F)ccn2)c(-c2cn(C3CC3)cn2)c1` [I-54, 3-(1-Cyclopropylimidazol-4-yl)-N-methyl-4-[[4-(trifluoromethyl)-2-pyridyl]amino]benzenesulfonamide] were, in that order, less than 0.1 µM and less than 0.1 µM.
Taken in the same sequence, the figures for `CNS(=O)(=O)c1ccc(NCc2ccccc2)c(-c2nnc(C)o2)c1` [I-61, 4-(Benzylamino)-N-methyl-3-(5-methyl-1,3,4-oxadiazol-2-yl)benzenesulfonamide] were greater than 0.5 µM and 0.1 to 0.5 µM.
In the case of `CC[C@@H](Nc1ccc(S(=O)(=O)NC)cc1-c1cn(C)cn1)c1ccccc1` [I-45, N-Methyl-3-(1-methylimidazol-4-yl)-4-[[(1R)-1-phenylpropyl]amino]benzenesulfonamide], the EC50 lay in the range of 0.1 to 0.5 µM in test [1] (MCF7, read-out: TEAD Reporter Assay EC50 (uM)) and 0.1 to 0.5 µM in test [2] (NCI-H226, read-out: H226 EC50 (uM)).
On to `CNS(=O)(=O)c1ccc(NCc2ccccc2)c(-c2cn(C3CC3)cn2)c1` [I-51, 4-(Benzylamino)-3-(1-cyclopropylimidazol-4-yl)-N-methyl-benzenesulfonamide], for which the EC50 in test [1] (setting [3]) and in test [2] (setting [4]) was less than 0.1 µM throughout.
Turning to `CNS(=O)(=O)c1ccc(Oc2cccc(C(F)(F)F)c2)c(C(N)=O)c1` [I-24], the EC50 in test [1] (setting [3]) and in test [2] (setting [4]) was greater than 0.5 µM each time.
As to `CNS(=O)(=O)c1ccc(N[C@@H]2CCc3ccccc32)c(-c2cn(C)cn2)c1` (single isomer, unassigned) [I-59], the EC50 in test [1] (setting [3]) and in test [2] (setting [4]) was less than 0.1 µM in each case.
Turning to `CCNS(=O)(=O)c1ccc(NCc2ccccc2)c(-c2cn(C)cn2)c1` [I-41, 4-(Benzylamino)-N-ethyl-3-(1-methylimidazol-4-yl)benzenesulfonamide], the EC50 in test [1] (setting [3]) is 0.1 to 0.5 µM; in test [2] (setting [4]), less than 0.1 µM.
The like results for `CNS(=O)(=O)c1ccc(N[C@H](C)c2cccc(C(F)(F)F)c2)c(-c2cn(C)cn2)c1` [I-63, N-Methyl-3-(1-methylimidazol-4-yl)-4-[[(1R)-1-[3-(trifluoromethyl)phenyl]ethyl]amino]benzenesulfonamide] were, in that order, 0.1 to 0.5 µM and 0.1 to 0.5 µM.
As to `CNS(=O)(=O)c1ccc(Nc2cc(C(F)(F)F)ccn2)c(-c2nnc(C)o2)c1` [I-62, N-Methyl-3-(5-methyl-1,3,4-oxadiazol-2-yl)-4-[[4-(trifluoromethyl)-2-pyridyl]amino]benzenesulfonamide], the EC50 in test [1] (setting [3]) and in test [2] (setting [4]) was 0.1 to 0.5 µM throughout.
For `CNS(=O)(=O)c1ccc(NCc2ccc3ncsc3c2)c(-c2cn(C)cn2)c1` [I-73, 4-(1,3-Benzothiazol-6-ylmethylamino)-N-methyl-3-(1-methylimidazol-4-yl)benzenesulfonamide], the EC50 in test [1] (setting [3]) is greater than 0.5 µM; in test [2] (setting [4]), 0.1 to 0.5 µM.
The like results for `CCNS(=O)(=O)c1ccc(Nc2ccc(C(F)(F)F)cn2)c(-c2cn(C)cn2)c1` [I-65, N-ethyl-3-(1-methylimidazol-4-yl)-4-[[5-(trifluoromethyl)-2-pyridyl]amino]benzenesulfonamide] were, in that order, less than 0.1 µM and less than 0.1 µM.
In the case of `CNS(=O)(=O)c1ccc(N[C@@H](C)c2ccccc2)c(-c2cn(C)cn2)c1` [I-28, N-Methyl-3-(1-methylimidazol-4-yl)-4-[[(1S)-1-phenylethyl]amino]benzenesulfonamide], the EC50 in test [1] (setting [3]) and in test [2] (setting [4]) was greater than 0.5 µM in each case.
As to `CNS(=O)(=O)c1ccc(Nc2ccc(C(F)(F)F)nc2)c(-c2cn(C)cn2)c1` [I-75, N-Methyl-3-(1-methylimidazol-4-yl)-4-[[6-(trifluoromethyl)-3-pyridyl]amino]benzenesulfonamide], the EC50 in test [1] (setting [3]) and in test [2] (setting [4]) was less than 0.1 µM each time.
With `CNS(=O)(=O)c1ccc(NCc2ccc3scnc3c2)c(-c2cn(C)cn2)c1` [I-72, 4-(1,3-Benzothiazol-5-ylmethylamino)-N-methyl-3-(1-methylimidazol-4-yl)benzenesulfonamide], the half-maximal effective concentration (EC50) is less than 0.1 µM in test [1] (setting [3]) and 0.1 to 0.5 µM in test [2] (setting [4]).
On to `CNS(=O)(=O)c1ccc(Nc2ccc(C(F)(F)F)cn2)c(-c2cn(Cc3ccccc3)cn2)c1` [I-71, 3-(1-Benzylimidazol-4-yl)-N-methyl-4-[[5-(trifluoromethyl)-2-pyridyl]amino]benzenesulfonamide], for which the EC50 in test [1] (setting [3]) and in test [2] (setting [4]) was 0.1 to 0.5 µM each time.
Turning to `Cn1cnc(-c2cc(S(N)(=O)=O)ccc2Nc2cc(C(F)(F)F)ccn2)c1` [I-49, 3-(1-Methylimidazol-4-yl)-4-[[4-(trifluoromethyl)-2-pyridyl]amino]benzenesulfonamide], the EC50 in test [1] (setting [3]) is greater than 0.5 µM; in test [2] (setting [4]), 0.1 to 0.5 µM.
Taken in the same sequence, the figures for `CNS(=O)(=O)c1ccc(Nc2ccc(C#N)cn2)c(-c2cn(C)cn2)c1` [I-86, 4-[(5-Cyano-2-pyridyl)amino]-N-methyl-3-(1-methylimidazol-4-yl)benzenesulfonamide] were greater than 0.5 µM and 0.1 to 0.5 µM.
On to `CC(C)NS(=O)(=O)c1ccc(Nc2cc(C(F)(F)F)ccn2)c(-c2cn(C)cn2)c1` [I-66, N-Isopropyl-3-(1-methylimidazol-4-yl)-4-[[4-(trifluoromethyl)-2-pyridyl]amino]benzenesulfonamide], for which the EC50 was greater than 0.5 µM in test [1] (setting [3]) and 0.1 to 0.5 µM in test [2] (setting [4]).
The like results for `CNS(=O)(=O)c1cnc(N[C@@H](C)c2ccccc2)c(-c2cn(C)cn2)c1` [I-34, N-Methyl-5-(1-methylimidazol-4-yl)-6-[[(1S)-1-phenylethyl]amino]pyridine-3-sulfonamide] were, in that order, greater than 0.5 µM and greater than 0.5 µM.
Turning to `CNS(=O)(=O)c1ccc(Nc2ccc(OC(F)(F)F)cn2)c(-c2cn(C)cn2)c1` [I-84, N-Methyl-3-(1-methylimidazol-4-yl)-4-[[5-(trifluoromethoxy)-2-pyridyl]amino]benzenesulfonamide], the EC50 in test [1] (setting [3]) and in test [2] (setting [4]) was less than 0.1 µM each time.
For `CNS(=O)(=O)c1ccc(N[C@@H]2CCCc3ccccc32)c(-c2cn(C)cn2)c1` [I-47, N-Methyl-3-(1-methylimidazol-4-yl)-4-[[(1R)-tetralin-1-yl]amino]benzenesulfonamide], the concentration for a half-maximal effect (EC50) in test [1] (setting [3]) and in test [2] (setting [4]) was 0.1 to 0.5 µM each time.
